This note sets out measurements from ChEMBL document CHEMBL5465560, “Selectivity Literature for EUbOPEN Chemogenomic Library” (2024).

The target in assay [1] is T1, Interleukin-1 receptor-associated kinase 4 (Homo sapiens) (UniProt Q9NWZ3).
T1 sequence (whole entry): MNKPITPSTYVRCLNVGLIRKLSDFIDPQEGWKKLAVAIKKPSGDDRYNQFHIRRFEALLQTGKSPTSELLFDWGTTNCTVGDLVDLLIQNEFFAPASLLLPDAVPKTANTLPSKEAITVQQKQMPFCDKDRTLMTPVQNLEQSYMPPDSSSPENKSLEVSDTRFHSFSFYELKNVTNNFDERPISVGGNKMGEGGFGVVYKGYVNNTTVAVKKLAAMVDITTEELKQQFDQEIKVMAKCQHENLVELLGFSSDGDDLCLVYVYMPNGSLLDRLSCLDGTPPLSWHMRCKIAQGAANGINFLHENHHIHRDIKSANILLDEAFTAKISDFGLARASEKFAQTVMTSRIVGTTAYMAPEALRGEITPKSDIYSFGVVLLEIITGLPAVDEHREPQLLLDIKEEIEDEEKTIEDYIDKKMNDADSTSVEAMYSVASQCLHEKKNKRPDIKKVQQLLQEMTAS
Description: Selectivity interaction (Kinase panel (KiNativ target engagement assay in Jurkat cells)) EUB0001635a IRAK4. The assay is classed as cell-based. Particulars: Selectivity number of off-targets 0.0, Selectivity number of targets 233.0, Source Knowledge https://www.sciencedirect.com/science/article/pii/S2451945619300674?via%3Dihub, at 1 µM.

For assay [2], the target named is T2, Ephrin type-B receptor 1 (Homo sapiens) (UniProt P54762).
T2 sequence (whole entry): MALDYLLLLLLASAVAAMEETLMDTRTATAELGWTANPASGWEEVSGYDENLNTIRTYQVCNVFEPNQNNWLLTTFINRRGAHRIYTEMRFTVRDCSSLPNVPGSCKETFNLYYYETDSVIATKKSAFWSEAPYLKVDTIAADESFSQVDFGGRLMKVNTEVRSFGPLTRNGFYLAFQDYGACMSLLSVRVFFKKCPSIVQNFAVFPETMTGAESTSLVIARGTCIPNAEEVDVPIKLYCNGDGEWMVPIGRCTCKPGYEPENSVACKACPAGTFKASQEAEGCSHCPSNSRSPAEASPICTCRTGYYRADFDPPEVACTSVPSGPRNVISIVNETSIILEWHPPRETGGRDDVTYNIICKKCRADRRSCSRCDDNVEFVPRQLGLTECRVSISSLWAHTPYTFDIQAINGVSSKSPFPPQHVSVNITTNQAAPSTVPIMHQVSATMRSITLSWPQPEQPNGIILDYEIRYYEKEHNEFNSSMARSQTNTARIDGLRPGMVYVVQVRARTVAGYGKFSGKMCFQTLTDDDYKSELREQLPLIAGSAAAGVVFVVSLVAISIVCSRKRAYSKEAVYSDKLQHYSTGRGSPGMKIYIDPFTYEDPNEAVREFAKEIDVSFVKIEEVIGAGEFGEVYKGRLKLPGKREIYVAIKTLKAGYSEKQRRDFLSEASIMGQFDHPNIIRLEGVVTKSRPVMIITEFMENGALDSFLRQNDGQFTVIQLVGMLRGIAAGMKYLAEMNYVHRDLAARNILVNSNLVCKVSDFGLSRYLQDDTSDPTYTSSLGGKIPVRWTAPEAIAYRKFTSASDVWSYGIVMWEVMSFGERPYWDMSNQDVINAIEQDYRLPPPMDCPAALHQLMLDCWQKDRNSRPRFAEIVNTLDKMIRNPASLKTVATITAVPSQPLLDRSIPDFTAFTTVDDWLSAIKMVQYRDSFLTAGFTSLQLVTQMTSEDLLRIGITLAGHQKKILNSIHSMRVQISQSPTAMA
The assay can be described thus: Selectivity interaction (ActivX KiNativ screen (kinase selectivity in THP-1 cell lysates)) EUB0000639a EPHB1. It counts as subcellular. Particulars: lysate.

For the next assay, the target named is Activated CDC42 kinase 1 (Homo sapiens, UniProt Q07912). Description: Selectivity interaction (ActivX KiNativ screen (kinase selectivity in THP-1 cell lysates)) EUB0000639a TNK2. The assay is classed as subcellular. Particulars: lysate.
Chain of Activated CDC42 kinase 1 (Q07912 whole entry, looked up): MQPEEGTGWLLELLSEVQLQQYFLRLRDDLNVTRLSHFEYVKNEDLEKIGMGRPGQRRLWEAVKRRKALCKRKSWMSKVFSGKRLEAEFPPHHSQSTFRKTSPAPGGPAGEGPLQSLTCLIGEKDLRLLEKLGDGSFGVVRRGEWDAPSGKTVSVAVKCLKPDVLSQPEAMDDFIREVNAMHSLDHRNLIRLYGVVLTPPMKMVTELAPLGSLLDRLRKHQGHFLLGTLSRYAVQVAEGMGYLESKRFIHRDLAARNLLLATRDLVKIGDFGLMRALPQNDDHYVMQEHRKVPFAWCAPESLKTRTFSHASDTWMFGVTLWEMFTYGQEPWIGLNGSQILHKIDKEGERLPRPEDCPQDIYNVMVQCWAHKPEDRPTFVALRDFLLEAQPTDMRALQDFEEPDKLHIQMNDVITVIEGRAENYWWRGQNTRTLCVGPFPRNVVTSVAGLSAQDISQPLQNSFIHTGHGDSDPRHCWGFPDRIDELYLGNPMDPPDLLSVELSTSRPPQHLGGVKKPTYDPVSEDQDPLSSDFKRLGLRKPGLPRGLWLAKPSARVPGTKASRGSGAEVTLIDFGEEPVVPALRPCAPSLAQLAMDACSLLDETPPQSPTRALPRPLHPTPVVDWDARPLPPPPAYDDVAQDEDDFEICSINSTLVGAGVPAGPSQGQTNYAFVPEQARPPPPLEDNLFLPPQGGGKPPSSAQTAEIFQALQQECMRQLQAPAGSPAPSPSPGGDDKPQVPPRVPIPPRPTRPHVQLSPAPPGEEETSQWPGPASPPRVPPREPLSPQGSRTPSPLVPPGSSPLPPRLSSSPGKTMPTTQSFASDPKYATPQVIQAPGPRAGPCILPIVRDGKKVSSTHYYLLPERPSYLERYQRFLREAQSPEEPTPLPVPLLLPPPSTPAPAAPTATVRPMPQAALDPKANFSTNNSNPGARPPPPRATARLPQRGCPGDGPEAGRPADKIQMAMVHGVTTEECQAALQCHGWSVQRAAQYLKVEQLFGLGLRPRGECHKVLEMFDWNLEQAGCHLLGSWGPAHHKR
In assay [3] the target is Ribosomal protein S6 kinase alpha-3 (Homo sapiens, UniProt P51812). The assay can be described thus: Selectivity interaction (ActivX KiNativ screen (kinase selectivity in THP-1 cell lysates)) EUB0000639a RPS6KA3. The assay is classed as subcellular. Particulars: lysate, at 0.2 µM.
Chain of Ribosomal protein S6 kinase alpha-3 (P51812 whole entry): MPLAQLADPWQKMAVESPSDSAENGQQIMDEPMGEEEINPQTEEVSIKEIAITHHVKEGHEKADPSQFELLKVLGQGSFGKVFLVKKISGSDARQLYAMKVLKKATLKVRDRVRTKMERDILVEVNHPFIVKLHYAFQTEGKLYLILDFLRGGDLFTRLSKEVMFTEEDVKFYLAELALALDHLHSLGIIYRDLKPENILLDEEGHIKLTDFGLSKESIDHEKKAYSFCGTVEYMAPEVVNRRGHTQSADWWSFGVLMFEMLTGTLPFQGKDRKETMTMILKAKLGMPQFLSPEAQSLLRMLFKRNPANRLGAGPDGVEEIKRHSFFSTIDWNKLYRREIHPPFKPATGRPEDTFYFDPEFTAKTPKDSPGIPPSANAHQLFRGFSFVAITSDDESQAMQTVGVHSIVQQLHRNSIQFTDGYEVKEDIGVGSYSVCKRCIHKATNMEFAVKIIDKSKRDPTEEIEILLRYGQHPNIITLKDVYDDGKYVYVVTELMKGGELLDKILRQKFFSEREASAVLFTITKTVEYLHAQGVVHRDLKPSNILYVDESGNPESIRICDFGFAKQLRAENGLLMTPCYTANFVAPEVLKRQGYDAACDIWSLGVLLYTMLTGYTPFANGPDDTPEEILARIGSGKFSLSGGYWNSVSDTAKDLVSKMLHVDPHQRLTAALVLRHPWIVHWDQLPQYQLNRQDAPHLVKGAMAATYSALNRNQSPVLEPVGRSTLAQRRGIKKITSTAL
Assay [4] addresses Myosin light chain kinase, smooth muscle (Homo sapiens, UniProt Q15746). Description: Selectivity interaction (KinomeScan (DiscoverX)) EUB0001049a MYLK. Particulars: at 1 µM.
Assay [5] concerns the target T3, Hormonally up-regulated neu tumor-associated kinase (Homo sapiens) (UniProt P57058).
T3 sequence (whole entry): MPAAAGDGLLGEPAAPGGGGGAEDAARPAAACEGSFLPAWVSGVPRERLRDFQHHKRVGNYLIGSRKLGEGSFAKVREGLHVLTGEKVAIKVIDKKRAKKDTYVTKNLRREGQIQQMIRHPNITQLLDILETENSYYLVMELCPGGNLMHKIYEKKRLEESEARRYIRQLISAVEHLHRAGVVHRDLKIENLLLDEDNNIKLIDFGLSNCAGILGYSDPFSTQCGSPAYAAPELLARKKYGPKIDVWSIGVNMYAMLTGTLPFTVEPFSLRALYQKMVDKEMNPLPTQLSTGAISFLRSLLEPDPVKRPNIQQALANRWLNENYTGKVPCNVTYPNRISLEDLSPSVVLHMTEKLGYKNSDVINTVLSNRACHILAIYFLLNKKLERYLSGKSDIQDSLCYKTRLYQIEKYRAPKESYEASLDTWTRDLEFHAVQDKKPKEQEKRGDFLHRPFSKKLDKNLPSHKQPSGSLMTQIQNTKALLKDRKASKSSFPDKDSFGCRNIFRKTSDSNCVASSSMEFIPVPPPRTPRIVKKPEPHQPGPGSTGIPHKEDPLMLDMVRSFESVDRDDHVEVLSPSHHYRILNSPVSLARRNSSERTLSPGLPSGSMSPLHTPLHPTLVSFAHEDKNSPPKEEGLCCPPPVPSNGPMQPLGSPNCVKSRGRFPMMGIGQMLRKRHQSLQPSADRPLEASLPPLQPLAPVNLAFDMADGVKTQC
The assay can be described thus: Selectivity interaction (KinomeScan (DiscoverX)) EUB0001049a HUNK. As to conditions: at 1 µM.

Chain of Myosin light chain kinase, smooth muscle (Q15746 whole entry): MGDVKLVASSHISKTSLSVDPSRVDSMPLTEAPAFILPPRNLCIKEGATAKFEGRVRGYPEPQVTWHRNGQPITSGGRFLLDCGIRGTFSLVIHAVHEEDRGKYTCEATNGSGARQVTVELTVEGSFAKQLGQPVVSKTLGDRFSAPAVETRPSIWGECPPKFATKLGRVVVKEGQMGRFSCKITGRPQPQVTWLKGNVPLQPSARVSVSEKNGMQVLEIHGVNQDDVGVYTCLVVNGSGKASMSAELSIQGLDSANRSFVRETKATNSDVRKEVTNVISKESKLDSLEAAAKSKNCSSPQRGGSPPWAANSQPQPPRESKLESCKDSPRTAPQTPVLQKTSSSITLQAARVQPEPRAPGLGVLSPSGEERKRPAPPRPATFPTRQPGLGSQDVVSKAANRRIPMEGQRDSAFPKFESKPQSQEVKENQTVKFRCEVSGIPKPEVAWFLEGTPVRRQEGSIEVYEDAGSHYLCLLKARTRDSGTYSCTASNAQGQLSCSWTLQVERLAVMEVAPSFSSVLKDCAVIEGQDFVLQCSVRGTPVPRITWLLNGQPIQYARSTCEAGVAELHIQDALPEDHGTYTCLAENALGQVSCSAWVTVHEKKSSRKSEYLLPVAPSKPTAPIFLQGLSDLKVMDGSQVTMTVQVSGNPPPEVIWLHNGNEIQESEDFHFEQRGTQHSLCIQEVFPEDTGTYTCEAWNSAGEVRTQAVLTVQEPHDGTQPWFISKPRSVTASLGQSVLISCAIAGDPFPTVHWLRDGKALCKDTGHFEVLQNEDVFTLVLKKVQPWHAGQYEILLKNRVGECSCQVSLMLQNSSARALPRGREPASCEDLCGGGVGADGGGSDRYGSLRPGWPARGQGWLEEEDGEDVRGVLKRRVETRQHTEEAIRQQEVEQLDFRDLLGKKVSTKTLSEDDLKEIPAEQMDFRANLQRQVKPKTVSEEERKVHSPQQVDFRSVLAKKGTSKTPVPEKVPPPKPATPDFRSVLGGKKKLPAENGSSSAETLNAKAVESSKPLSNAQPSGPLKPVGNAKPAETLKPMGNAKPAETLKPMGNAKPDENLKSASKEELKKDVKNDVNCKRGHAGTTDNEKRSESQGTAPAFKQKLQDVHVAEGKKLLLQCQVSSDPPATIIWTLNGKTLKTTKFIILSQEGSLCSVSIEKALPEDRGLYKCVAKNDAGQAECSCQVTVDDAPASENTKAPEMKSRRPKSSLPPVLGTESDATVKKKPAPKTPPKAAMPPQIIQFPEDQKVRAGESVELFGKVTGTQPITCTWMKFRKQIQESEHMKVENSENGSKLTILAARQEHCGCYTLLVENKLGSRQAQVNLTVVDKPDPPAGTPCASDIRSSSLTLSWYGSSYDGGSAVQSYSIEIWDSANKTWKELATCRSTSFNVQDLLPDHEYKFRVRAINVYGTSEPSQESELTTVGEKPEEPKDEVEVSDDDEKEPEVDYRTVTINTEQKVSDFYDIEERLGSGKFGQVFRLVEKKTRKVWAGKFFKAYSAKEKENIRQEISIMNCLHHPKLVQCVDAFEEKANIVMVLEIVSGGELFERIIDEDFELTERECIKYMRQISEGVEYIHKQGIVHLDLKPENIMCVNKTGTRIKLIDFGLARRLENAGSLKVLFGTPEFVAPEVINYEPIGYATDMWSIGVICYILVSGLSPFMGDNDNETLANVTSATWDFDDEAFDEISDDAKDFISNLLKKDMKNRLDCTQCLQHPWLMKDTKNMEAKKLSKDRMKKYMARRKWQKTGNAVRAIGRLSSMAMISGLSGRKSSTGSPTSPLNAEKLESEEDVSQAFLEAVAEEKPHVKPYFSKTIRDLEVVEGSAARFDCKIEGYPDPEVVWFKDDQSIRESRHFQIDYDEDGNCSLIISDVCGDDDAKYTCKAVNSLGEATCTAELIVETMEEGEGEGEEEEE

As for `C=CC(=O)Nc1ccc(C(=O)Nc2[nH]nc3c2CN(C(=O)N[C@H](CN(C)C)c2ccccc2)C3(C)C)cc1`, in assay [1], the % of engagement came to 2%.

Regarding `CC[C@@H]1[C@H](F)C(=O)N[C@@H]1COc1nccc2cc(C(N)=O)c(OC)cc12` [ZIMLOVISERTIB], the % of inhibition in assay [2] (at 0.01 µM) is -7%; in assay [2] (at 0.04 µM) it was -38.7%; in assay [2] (at 0.2 µM), -5.5%; in assay [2] (at 1 µM) it was -14.3%; in assay [2] (at 5 µM) it was -6.5%; at Activated CDC42 kinase 1 (at 0.01 µM), 1.7%. The % of inhibition on Activated CDC42 kinase 1 (at 0.04 µM) is -15.5%; at Activated CDC42 kinase 1 (at 0.2 µM) it was -11.3%; at Activated CDC42 kinase 1 (at 1 µM) it was -19.1%; on Activated CDC42 kinase 1 (at 5 µM), -20.6%; in assay [3], 15.4%.

For `COc1cc(Nc2nc(C)cc(-c3cnn4nc(OC)ccc34)n2)cc(C(F)(F)F)c1`, the % of control is 58% in assay [4] and 99% in assay [5].
